Source: ChEMBL document CHEMBL4270552, “4-(Phenoxy) and 4-(benzyloxy)benzamides as potent and selective inhibitors of mono-ADP-ribosyltransferase PARP10/ARTD10” (Eur J Med Chem, 2018)

What was measured:
[1] = molecular target: T1, Poly [ADP-ribose] polymerase tankyrase-1 (Homo sapiens, UniProt O95271); test: Inhibition of N-terminal His-tagged human ARTD5 (1030 to 1317 residues) expressed in Escherichia coli Rosetta2 (DE3) using TCEP as substrate after 18 hrs in presence of NAD+
T1 sequence (O95271 whole entry): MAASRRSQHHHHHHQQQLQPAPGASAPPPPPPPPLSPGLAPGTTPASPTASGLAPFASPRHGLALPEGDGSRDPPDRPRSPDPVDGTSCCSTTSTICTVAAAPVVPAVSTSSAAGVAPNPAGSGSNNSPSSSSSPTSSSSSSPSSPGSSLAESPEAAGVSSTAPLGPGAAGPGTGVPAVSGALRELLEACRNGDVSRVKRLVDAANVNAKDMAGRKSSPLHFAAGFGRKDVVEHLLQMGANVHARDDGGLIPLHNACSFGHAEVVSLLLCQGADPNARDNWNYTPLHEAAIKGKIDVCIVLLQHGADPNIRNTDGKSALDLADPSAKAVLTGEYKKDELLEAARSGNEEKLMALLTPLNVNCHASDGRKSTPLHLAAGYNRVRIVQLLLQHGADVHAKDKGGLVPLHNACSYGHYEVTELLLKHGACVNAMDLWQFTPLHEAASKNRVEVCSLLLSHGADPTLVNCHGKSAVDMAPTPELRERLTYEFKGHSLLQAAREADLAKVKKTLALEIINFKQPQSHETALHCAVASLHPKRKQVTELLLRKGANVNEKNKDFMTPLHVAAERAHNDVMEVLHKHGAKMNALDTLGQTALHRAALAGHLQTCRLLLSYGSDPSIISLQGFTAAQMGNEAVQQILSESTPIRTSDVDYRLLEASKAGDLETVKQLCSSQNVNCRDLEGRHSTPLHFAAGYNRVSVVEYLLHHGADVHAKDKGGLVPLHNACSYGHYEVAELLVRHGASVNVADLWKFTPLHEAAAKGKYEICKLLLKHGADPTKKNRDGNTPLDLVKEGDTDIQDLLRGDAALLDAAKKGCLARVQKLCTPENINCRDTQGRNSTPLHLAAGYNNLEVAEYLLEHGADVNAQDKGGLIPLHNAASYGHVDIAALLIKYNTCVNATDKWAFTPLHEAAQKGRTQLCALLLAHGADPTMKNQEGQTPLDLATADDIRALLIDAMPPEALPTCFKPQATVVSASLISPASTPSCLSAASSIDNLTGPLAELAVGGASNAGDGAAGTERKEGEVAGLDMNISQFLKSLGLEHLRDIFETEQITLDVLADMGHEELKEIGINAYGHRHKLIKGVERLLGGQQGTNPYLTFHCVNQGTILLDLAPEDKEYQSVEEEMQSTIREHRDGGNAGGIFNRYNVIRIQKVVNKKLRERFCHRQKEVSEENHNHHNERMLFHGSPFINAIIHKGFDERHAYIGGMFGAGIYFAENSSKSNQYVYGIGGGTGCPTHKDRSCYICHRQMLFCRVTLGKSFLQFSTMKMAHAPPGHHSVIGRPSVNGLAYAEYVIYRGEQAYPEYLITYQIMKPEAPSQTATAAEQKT

[2] = molecular target: T2, Poly [ADP-ribose] polymerase tankyrase-2 (Homo sapiens, UniProt Q9H2K2); test: Inhibition of N-terminal His-tagged Z-basic-fused human ARTD6 (873 to 1161 residues) expressed in Escherichia coli Rosetta2 (DE3) using TCEP as substrate after 18 hrs in presence of NAD+
T2 sequence (Q9H2K2 whole entry): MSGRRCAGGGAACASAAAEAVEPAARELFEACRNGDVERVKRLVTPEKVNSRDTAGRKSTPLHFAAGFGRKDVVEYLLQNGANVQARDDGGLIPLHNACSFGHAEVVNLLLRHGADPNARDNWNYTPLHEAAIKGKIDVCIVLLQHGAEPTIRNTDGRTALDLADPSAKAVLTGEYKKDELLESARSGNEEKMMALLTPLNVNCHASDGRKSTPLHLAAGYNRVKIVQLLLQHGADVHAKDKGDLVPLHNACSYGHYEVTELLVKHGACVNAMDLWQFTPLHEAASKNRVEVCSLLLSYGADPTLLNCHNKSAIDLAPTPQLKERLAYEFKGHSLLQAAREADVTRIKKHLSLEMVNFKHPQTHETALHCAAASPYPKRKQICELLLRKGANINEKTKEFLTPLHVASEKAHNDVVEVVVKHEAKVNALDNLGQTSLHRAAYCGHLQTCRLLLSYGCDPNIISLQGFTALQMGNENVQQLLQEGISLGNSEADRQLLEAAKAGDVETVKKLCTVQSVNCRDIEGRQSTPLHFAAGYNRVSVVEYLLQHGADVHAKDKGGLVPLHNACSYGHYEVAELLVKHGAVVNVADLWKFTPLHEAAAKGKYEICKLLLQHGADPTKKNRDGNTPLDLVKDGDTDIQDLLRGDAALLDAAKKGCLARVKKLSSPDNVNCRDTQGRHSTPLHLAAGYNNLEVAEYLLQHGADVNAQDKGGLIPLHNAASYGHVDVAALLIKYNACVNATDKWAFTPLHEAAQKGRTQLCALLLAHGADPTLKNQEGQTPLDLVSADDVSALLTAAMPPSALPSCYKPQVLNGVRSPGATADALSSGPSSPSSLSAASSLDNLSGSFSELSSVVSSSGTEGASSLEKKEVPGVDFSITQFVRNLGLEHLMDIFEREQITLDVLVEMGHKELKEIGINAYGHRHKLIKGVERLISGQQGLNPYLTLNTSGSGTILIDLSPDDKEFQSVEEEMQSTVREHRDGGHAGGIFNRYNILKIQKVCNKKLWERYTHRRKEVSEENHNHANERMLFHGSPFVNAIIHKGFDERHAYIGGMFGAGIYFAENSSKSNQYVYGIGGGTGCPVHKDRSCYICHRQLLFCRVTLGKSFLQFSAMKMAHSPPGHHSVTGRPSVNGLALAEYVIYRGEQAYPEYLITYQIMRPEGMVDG

[3] = molecular target: T3, Protein mono-ADP-ribosyltransferase PARP16 (Homo sapiens, UniProt Q8N5Y8); test: Inhibition of N-terminal His-tagged human ARTD15 (1 to 280 residues) expressed in Escherichia coli Rosetta2 (DE3) after 24 hrs in presence of NAD+
T3 sequence (Q8N5Y8 whole entry): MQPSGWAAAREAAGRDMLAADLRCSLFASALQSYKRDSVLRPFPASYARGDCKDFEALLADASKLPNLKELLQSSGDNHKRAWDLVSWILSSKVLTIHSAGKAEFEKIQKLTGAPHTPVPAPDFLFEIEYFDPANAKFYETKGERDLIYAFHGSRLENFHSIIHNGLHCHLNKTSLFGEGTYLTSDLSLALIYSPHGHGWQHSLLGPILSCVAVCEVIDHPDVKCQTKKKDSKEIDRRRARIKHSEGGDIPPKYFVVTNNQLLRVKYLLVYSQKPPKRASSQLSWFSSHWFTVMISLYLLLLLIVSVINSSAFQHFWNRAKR

[4] = molecular target: Protein mono-ADP-ribosyltransferase PARP9 (Homo sapiens) (UniProt Q8IXQ6); also: test concentration or dose not given here

Row | Structure (SMILES) | IC50 [1] [µM] | IC50 [2] [µM] | IC50 [3] [µM] | ΔTm [4] [°C]
1 | NC(=O)c1ccc(OCc2ccccc2F)cc1 | > 100 | > 100 | > 10 | 0.76
2 | NC(=O)c1ccc(Oc2ccc(C=O)cc2)cc1 | > 100 | > 100 | > 10 | 0.04
3 | NC(=O)c1ccc(Oc2ccc(C(=O)O)cc2)cc1 | > 100 | > 100 | > 10 | 1.2
4 | COc1ccc(C(N)=O)cc1 | > 100 | > 100 | > 10 | 0.15
